Values joined by “and” are separate entries in the source; they are usually repeats but may differ in a detail not shown here. Equal entries are not always repeated. “Also recorded” adds a separate entry of the source.
What was measured:
[1] = tested on: adolescents with Single Ventricle Heart Disease who underwent Fontan palliation; assay: FALD study: circulating biomarkers of heart failure and liver fibrosis (HA, PIIINP, TIMP-1, BNP and others); type: in vivo, human; parameters: HA, Post Baseline / TIMP−1, Post Baseline: unit not given beside the values; HA, Change from Baseline / TIMP−1, Change from Baseline / BNP, Change from Baseline: unit not given here; conditions: Cohort U− (udenafil for 52 weeks), individual subject
From the text: As noted previously, increased liver stiffness can be secondary to hepatic congestion and/or hepatic fibrosis. […] For instance, patients with increased liver stiffness due to hepatic congestion may have increased biomarkers of heart failure (e.g., BNP, NT-proBNP). […] The relative contribution of congestion or fibrosis (as determined by biomarker profiles) to the observed level of liver stiffness may correlate with which therapeutic strategies are likely to be successful in a particular patient. Therefore, in this aim, we sought to determine which circulating biomarkers correlate with measures of liver stiffness and which correlate with a change in liver stiffness with udenafil treatment. We used both a directed approach, with an analysis of candidate biomarkers validated for other disease processes, and a non-directed approach, which identifies novel biomarkers associated with FALD. The FALD study, ClinicalTrials.gov Identifier: NCT03430583, which is incorporated herein by reference in its entirety, was an open-label extension study that integrated with the FUEL Extension Trial. […] Both the U− cohort and the U+ cohort had liver stiffness measured by ultrasound and MR elastography (where available), and ELF biomarkers analyzed, as described above. […] The Enhanced Liver Fibrosis (ELF) scores were based on the serum levels of hyaluronic acid (HA), amino-terminal propeptide of type III collagen (PIIINP), and tissue inhibitor of metalloproteinase-1 (TIMP-1). Testing was performed by the FUEL-OLE Central Laboratory using the serum samples. In accordance with prior studies, we assigned those patients with scores of <7.7 to the no-fibrosis or mild fibrosis group, 7.7-9.8 to the moderate fibrosis group, 9.8-11.3 to the severe fibrosis group, and >11.3 to the cirrhosis group.

[2] = tested on: adolescents with Fontan physiology; assay: FUEL trial: peripheral arterial tonometry (EndoPAT), log-transformed reactive hyperemia index (lnRHI); type: in vivo, human
From the text: Pulse amplitude tonometry (PAT), a FDA-approved method for assessing vascular function, is increasingly being used as an alternative measure of endothelium-dependent dilation in response to reactive hyperemia and flow-mediated dilation (FMD). The PAT device records digital pulse wave amplitude (PWA) using fingertip plethysmography. PWA can be measured continuously during three phases: a quiet baseline period, 5-min forearm occlusion, and reactive hyperemia following cuff release. Unlike FMD, PAT testing is not dependent upon a highly skilled technician and post-test analysis is largely automated. […]
The primary outcome was the change in oxygen consumption at peak exercise (max or peak VO2) from baseline to the 26-week visit. […] Safety was monitored through adverse event reports, which were collected according to a pre-specified protocol of study coordinator outreach, and through ad hoc patient and family communication with members of the study team at each site.
Baseline clinical testing completed before drug initiation included a blood draw to measure brain-type natriuretic peptide (BNP) level, a cardiopulmonary exercise test (CPET) using a standardized cycle ergometer ramp protocol, a standardized echocardiogram, and an assessment of peripheral vascular function using peripheral arterial tonometry (PAT) measured by finger cuff (EndoPAT; Itamar Medical, Israel). […]

CCCOc1ccc(S(=O)(=O)NCCC2CCCN2C)cc1-c1nc2c(CCC)nn(C)c2c(=O)[nH]1 (stereo not shown) [Udenafil, udenafil]
BNP, % Change from Baseline [1]: −83.33% and −55.56% and −96.2963% and −33.75% and −25.17% and −20% | BNP, Change from Baseline [1]: −5 and −25 and −26 and −10.7 and −3.7 and −6.5 and −3 | HA, % Change from Baseline [1]: −23.28% and −55.89% and −92.1% and −78.47% and 255.6% and 69.68% | HA, Change from Baseline [1]: −10.87 and −67.92 and −82.42 and −137.35 and 54.28 and 27.67 and 3.05 | PIIINP, % Change from Baseline [1]: −52.39% and −50.4522% and 5.12% and −50.05% and −15.3% and 66.2% | PIIINP, Change from Baseline [1]: −19.04 and −15.62 and 0.77 and −23.08 and −2.33 and 9.99 and 1.99 | TIMP−1, % Change from Baseline [1]: 1.424% and 1.608% and 25.82% and −5.136% and 3.739% and 19.54% | TIMP−1, Change from Baseline [1]: 2.3 (2×) and 39.4 and −9.8 and 6.2 and 47.1 and 56.3 | BNP, Post Baseline ([1]; Post Baseline visit (52 week)): 1 (2×) and 20 and 21 and 11 and 26 and 3 | HA, Post Baseline ([1]; Post Baseline visit (52 week)): 35.83 and 53.6 and 7.07 and 37.68 and 75.52 and 67.38 and 23.1 | PIIINP, Post Baseline ([1]; Post Baseline visit (52 week)): 17.3 and 15.34 and 15.81 and 23.03 and 12.9 and 25.08 and 27.3 | TIMP−1, Post Baseline ([1]; Post Baseline visit (52 week)): 163.8 and 145.3 and 192 and 181 and 172 and 288.2 and 290.4 | Change in lnRHI (PAT outcome), udenafil vs placebo [2]: no difference; also recorded: did not reveal a benefit
